Source: US20220395481A1, “BACTERIOSTATIC COMPOSITION, PREPARATION METHOD THEREFOR, AND USE THEREOF” (SHENZHEN EULIKAN BIOTECHNOLOGY CO., LTD, priority 2020, published 2022)
Read-outs that look alike come from different tables or passages of the source.

How the values were obtained:
[1] = test system: Candida albicans ATCC 10231; assay: Inhibition rate after 20 minutes of action, Appendix C of GB 15979-2002; assay type: cell-based
Description: “Inhibition rate” is the inhibition rate of bacteriostatic agents against Escherichia coli, Staphylococcus aureus, Candida albicans, or other microorganisms obtained by referring to the test methods and judgment criteria in Appendix C of GB 15979-2002 Hygienic Standard for Disposable Sanitary Products.
“Bacteriostatic effect” refers to the inhibition of bacteria, fungi, or other microorganisms by bacteriostatic agents.
The percentage concentration of each ingredient therein was the weight percentage concentration % (w/w), and the pH value of each group was 3.8.
The percentage concentration of each ingredient therein was the weight percentage concentration % (w/w), and the pH value of each group was 4.0.
According to the method described in Appendix C of GB 15979-2002 Hygienic Standard for Disposable Sanitary Products, aqueous solutions containing different ingredients were studied for their bacteriostatic effects of 20 minutes of action against Candida albicans ATCC 10231, the percentage concentration of each ingredient therein was the weight percentage concentration % (w/w), and the pH value of each group was 3.9. […]

lactobacilli = details: cited from earlier work

SMILES	Inhibition rate ([1]; Table 12, single ingredient solutions, pH 3.8, 20 minutes of action) [%]	influence on the bacteriostatic effect of the solution containing 0.14% malic acid, 1.46% adipic acid, 0.20% sodium benzoate, 1.67% propionic acid, and 0.40% phenethyl alcohol against Candida albicans ([1]; text on Table 26, pH 4.0, Group 1 compared to Group 2)	growth of lactobacilli (lactobacilli; concentration 0.40% (w/v))	growth of lactobacilli (lactobacilli; concentration 0.50% (w/v))	growth of lactobacilli (lactobacilli; concentration 0.70% (w/v))
O=C([O-])c1ccccc1.[Na+] [0.25% sodium benzoate, sodium benzoate]	3.73				
N[C@@H](CCC(=O)O)C(=O)O [0.55% glutamic acid, glutamic acid]		did not affect the bacteriostatic effect			
OCCc1ccccc1 [phenethyl alcohol, phenethyl alcohol (2-phenylethanol)]			not significantly inhibited	inhibited	
CCC(=O)[O-].[Na+] [sodium propionate]			not significantly inhibited	not significantly inhibited	inhibited
